How the values were obtained:
Cholinesterase = Cholinesterase (Equus caballus, UniProt P81908); assay: Inhibition of equine serum BuChE using butylthiocholine iodine as substrate preincubated for 20 mins followed by substrate addition and measured after 20 mins by DTNB reagent based Ellman's method
Acetylcholinesterase = Acetylcholinesterase (Electrophorus electricus, UniProt O42275); assay: Inhibition of electric eel AChE using acetylthiocholine iodine as substrate preincubated for 20 mins followed by substrate addition and measured after 20 mins by DTNB reagent based Ellman's method
[1] = Cytotoxicity in human SH-SY5Y cells assessed as reduction in cell viability incubated for 48 hrs by MTT assay; type: toxicity, cell-based
[2] = Selectivity index, ratio of IC50 for inhibition of equine serum BuChE to IC50 for inhibition of electric eel AChE
[3] = Cytotoxicity in human HepG2 cells assessed as reduction in cell viability incubated for 48 hrs by MTT assay; type: toxicity, cell-based
Beta-secretase 1 [4] = target: T1, Beta-secretase 1 (Homo sapiens, UniProt P56817); assay: Inhibition of recombinant human BACE1 using fluorogenic polypeptide Mca-SEVNLDAEFRK(Dpn)RRNH2 as substrate at 10 uM incubated for 60 mins by FRET assay relative to control
Beta-secretase 1 [5] = target: T1, Beta-secretase 1; assay: Inhibition of BACE1 (unknown origin)
[6] = target: Glycogen synthase kinase-3 beta (Homo sapiens, UniProt P49841); assay: Inhibition of GSK-3beta (unknown origin)
Beta-secretase 1 [7] = target: T1, Beta-secretase 1; assay: Inhibition of recombinant human BACE1 using fluorogenic polypeptide Mca-SEVNLDAEFRK(Dpn)RRNH2 as substrate incubated for 60 mins by FRET assay
[8] = Cytotoxicity in human HL7702 cells assessed as reduction in cell viability incubated for 48 hrs by MTT assay; type: toxicity, cell-based; details: HL7702 (L02) cells
[9] = Effective permeability of the compound in PBS buffer at pH 7.4/EtOH buffer (7:3) incubated for 20 hrs by UV-plate spectroscopy based PAMPA-BBB assay

Chain of Cholinesterase (P81908 whole entry): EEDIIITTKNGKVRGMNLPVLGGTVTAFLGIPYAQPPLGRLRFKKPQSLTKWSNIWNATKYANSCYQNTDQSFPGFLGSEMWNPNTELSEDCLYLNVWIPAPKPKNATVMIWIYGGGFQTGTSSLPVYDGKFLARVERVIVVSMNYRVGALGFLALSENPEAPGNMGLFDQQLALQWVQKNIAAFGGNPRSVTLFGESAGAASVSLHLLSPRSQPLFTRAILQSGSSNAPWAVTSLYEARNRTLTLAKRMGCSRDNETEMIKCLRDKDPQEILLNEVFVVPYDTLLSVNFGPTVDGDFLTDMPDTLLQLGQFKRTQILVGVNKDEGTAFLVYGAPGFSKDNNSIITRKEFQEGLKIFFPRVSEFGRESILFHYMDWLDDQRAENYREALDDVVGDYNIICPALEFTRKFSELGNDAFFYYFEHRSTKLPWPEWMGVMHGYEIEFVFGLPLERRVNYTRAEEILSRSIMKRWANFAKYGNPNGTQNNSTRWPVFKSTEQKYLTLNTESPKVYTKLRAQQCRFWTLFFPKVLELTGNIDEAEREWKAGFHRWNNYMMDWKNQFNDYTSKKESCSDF
Chain of Acetylcholinesterase (O42275 whole entry): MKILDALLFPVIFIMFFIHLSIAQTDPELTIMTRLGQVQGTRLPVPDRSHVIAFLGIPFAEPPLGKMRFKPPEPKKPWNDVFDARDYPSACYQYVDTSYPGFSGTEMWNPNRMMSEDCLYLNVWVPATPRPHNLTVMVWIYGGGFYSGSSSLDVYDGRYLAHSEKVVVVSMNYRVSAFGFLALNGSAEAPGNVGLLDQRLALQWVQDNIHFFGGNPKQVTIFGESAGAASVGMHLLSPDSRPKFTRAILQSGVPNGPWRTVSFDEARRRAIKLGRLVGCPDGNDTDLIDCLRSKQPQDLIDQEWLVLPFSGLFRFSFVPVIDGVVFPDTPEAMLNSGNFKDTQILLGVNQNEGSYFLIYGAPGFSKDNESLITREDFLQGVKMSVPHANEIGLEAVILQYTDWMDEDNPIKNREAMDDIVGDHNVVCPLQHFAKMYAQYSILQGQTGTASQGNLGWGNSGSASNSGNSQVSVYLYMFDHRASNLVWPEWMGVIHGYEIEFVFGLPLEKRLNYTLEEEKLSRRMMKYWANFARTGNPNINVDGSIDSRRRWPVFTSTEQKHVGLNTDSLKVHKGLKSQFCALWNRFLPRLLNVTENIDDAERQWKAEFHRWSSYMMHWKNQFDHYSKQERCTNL
T1 sequence (P56817 whole entry): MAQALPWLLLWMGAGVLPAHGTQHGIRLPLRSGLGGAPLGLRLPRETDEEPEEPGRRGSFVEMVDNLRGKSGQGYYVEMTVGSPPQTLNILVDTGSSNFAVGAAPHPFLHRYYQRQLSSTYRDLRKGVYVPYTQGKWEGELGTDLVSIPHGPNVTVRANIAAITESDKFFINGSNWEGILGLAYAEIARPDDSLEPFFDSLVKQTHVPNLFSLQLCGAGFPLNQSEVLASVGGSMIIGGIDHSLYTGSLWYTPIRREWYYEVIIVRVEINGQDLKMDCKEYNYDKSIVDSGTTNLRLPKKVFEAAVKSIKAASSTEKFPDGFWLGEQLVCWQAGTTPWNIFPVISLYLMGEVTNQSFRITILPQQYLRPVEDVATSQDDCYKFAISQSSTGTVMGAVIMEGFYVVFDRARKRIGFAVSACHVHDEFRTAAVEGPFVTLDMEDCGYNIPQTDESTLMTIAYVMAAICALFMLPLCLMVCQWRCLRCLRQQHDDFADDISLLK
Chain of Glycogen synthase kinase-3 beta (P49841 whole entry): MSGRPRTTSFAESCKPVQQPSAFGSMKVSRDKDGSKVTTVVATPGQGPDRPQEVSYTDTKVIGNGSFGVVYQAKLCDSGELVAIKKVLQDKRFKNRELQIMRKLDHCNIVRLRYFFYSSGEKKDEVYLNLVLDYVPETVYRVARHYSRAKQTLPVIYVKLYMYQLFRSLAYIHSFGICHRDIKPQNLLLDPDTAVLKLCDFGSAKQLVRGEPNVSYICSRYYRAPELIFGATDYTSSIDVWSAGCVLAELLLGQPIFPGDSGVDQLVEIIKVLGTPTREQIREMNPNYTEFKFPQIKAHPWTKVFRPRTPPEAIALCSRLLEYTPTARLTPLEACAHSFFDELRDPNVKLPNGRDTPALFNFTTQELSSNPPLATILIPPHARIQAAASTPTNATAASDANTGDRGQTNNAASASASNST

Row | SMILES | IC50 (Cholinesterase) [µM] | IC50 (Acetylcholinesterase) [µM] | IC50 at 48 h [1] [µM] | Ratio IC50 [2] | IC50 at 48 h [3] [µM] | inhibition (Beta-secretase 1 [4]) [%] | IC50 (Beta-secretase 1 [5]) [µM] | IC50 [6] [µM] | IC50 (Beta-secretase 1 [7]) [µM] | IC50 at 48 h [8] [µM] | Papp at 20 h [9] [×10⁻⁶ cm/s]
1 | O=c1cc(OCCCN2CCC(NCc3ccccc3F)CC2)c2ccc(-c3cccnc3)cc2o1 | > 50 | 11.6 | 19.1 | > 4.31 | 15.1 |  |  |  |  |  | 
2 | O=C(Nc1cc(-c2ccc3c(OCCCNC4CCN(Cc5ccccc5)CC4)cc(=O)oc3c2)ccn1)c1ccccc1 | > 50 | 13.5 | 1.5 | > 3.7 | 1.91 |  |  |  |  |  | 
3 | O=c1cc(OCCCN2CCC(NCc3ccccc3)CC2)c2ccc(-c3ccncc3)cc2o1 | > 50 | 16.8 | 16.4 | > 2.97 | 13.9 | 49.4 |  |  |  |  | 
4 | CC(C)=CC(O)C/C(C)=C/COc1c2ccoc2cc2oc(=O)ccc12 (stereo not drawn) [NOTOPTEROL] | > 100 | > 100 | > 20 |  | > 20 | 10.2 | 26 | 1 | 26 |  | 
5 | O=c1cc(OCCCN2CCC(NCc3ccccc3)CC2)c2ccc(-c3ccc(F)nc3)cc2o1 | 44.2 | 3.54 | 12.2 | 12.5 | 8.49 |  |  |  |  |  | 
6 | O=c1cc(OCCCNC2CCN(Cc3ccccc3)CC2)c2ccc(-c3ccnc(F)c3)cc2o1 | > 50 | 2.14 | 5.56 | > 23.4 | 5.95 |  |  |  |  |  | 
7 | O=C(Nc1cc(-c2ccc3c(OCCCNC4CCN(Cc5ccccc5)CC4)cc(=O)oc3c2)ccn1)C1CC1 | > 50 | 6.75 | 3.41 | > 7.41 | 3.65 | 30.9 |  |  |  |  | 
8 | O=c1cc(OCCCN2CCC(NCc3ccsc3)CC2)c2ccc(-c3cccnc3)cc2o1 | 9.98 | 3.29 | 14.2 | 3.03 | 14.1 | 64.7 |  |  |  | 36.2 | 15.4
9 | O=c1cc(OCCCN2CCC(CNCc3ccccc3F)CC2)c2ccc(-c3cccnc3)cc2o1 | 31.1 | 10.7 | 6.49 | 2.91 | 4.26 | 67.2 |  |  |  |  | 
10 | O=c1cc(OCCCNC2CCN(Cc3ccccc3)CC2)c2ccc(-c3ccc(F)cc3)cc2o1 | > 50 | 34.3 | 6.69 | > 1.46 | 9.14 |  |  |  |  |  | 
11 | N#Cc1cccc(CNC2CCN(CCCOc3cc(=O)oc4cc(-c5cccnc5)ccc34)CC2)c1 | > 50 | 7.28 | 12.4 | > 6.87 | 3.26 | 89.5 |  |  |  |  | 
12 | CN(Cc1ccccc1)C1CCN(CCCOc2cc(=O)oc3cc(-c4ccc(F)nc4)ccc23)CC1 | > 50 | 4.07 | 15.6 | > 12.3 | 10.4 | 61.3 |  |  |  |  | 
13 | COc1cccc(/C=N/C2CCN(Cc3ccccc3)CC2)c1OC |  |  |  |  |  |  |  | > 15 |  |  | 
14 | O=c1cc(OCCCN2CCC(NCc3cccc(F)c3)CC2)c2ccc(-c3cccnc3)cc2o1 | 28.4 | 10.1 | 14.4 | 2.82 | 14.6 | 34 |  |  |  |  | 
15 | O=c1cc(OCCCN2CCC(NCc3ccccc3)CC2)c2ccc(-c3cccnc3)cc2o1 | 21.4 | 9.31 | > 20 | 2.3 | > 20 | 51.4 |  |  |  |  | 
16 | Cc1ccc(CNC2CCN(CCCOc3cc(=O)oc4cc(-c5cccnc5)ccc34)CC2)cc1 | 16.3 | 14.2 | 16.5 | 1.15 | 9.93 | 36.4 |  |  |  |  | 
17 | O=c1cc(OCCCN2CCOCC2)c2ccc(-c3cccnc3)cc2o1 | > 50 | 15.7 | > 20 | > 3.19 | > 20 |  |  |  |  |  | 
18 | Cc1cccc(CNC2CCN(CCCOc3cc(=O)oc4cc(-c5cccnc5)ccc34)CC2)c1 | 18.6 | 16.6 | 12 | 1.12 | 13.1 |  |  |  |  |  | 
19 | O=c1cc(OCCCN2CCC(NCc3cccc([N+](=O)[O-])c3)CC2)c2ccc(-c3cccnc3)cc2o1 | > 50 | 36.5 | 8.37 | > 1.37 | 9.29 | 46.1 |  |  |  |  | 
20 | O=c1cc(OCCCN2CCC(NCc3ccc(F)cc3)CC2)c2ccc(-c3cccnc3)cc2o1 | > 50 | 25.9 | 10.9 | > 1.93 | > 20 | 22.1 |  |  |  |  | 
21 | O=C(Nc1cc(-c2ccc3c(OCCCN4CCC(NCc5ccccc5)CC4)cc(=O)oc3c2)ccn1)C1CC1 | 29 | 9.69 | 1.87 | 2.99 | 3.34 | 34.7 |  |  |  |  | 
22 | Nc1c2c(nc3ccccc13)CCCC2 [TACRINE] |  |  |  |  |  |  |  |  |  |  | 8.04
23 | COc1ccc(CNC2CCN(CCCOc3cc(=O)oc4cc(-c5cccnc5)ccc34)CC2)cc1 | 11.3 | 11.6 | 6.81 | 0.982 | 9.12 | 82 |  |  |  |  | 
24 | O=c1cc(OCCCNC2CCN(Cc3ccccc3)CC2)c2ccc(-c3ccncc3)cc2o1 | > 50 | 2.24 | 10.2 | > 22.3 | 10.6 |  |  |  |  |  | 
25 | O=c1cc(OCCCN2CCC(NCc3ccccc3)CC2)c2ccc(Br)cc2o1 | 35.7 | 22.7 | > 20 | 1.58 | 11.8 | 72.8 |  |  |  |  | 
26 | COc1cccc(CNC2CCN(CCCOc3cc(=O)oc4cc(-c5cccnc5)ccc34)CC2)c1 | 11.3 | 12.4 | 19.3 | > 4.03 | 11.4 | 48.8 |  |  |  |  | 
27 | O=c1cc(OCCCNC2CCN(Cc3ccccc3)CC2)c2ccc(-c3ccc(F)nc3)cc2o1 | > 50 | 1.72 | 5.75 | > 29 | 3.93 |  |  |  |  |  | 
28 | O=c1cc(OCCCN2CCC(NCc3ccc(F)c(F)c3)CC2)c2ccc(-c3cccnc3)cc2o1 | 22.8 | 12.7 | 5.36 | 1.78 | 9.72 | 93.8 |  |  | 1.81 | 8.05 | 9.4
29 | C[C@@]1(c2cc(-c3cncnc3)c(F)cc2F)CCSC(N)=N1 |  |  |  |  |  | 80.3 |  |  |  |  | 
30 | CN(Cc1ccccc1)C1CCN(CCCOc2cc(=O)oc3cc(-c4ccc(F)cc4)ccc23)CC1 | > 50 | 4.55 | 4.88 | > 11 | 3.37 | 70.9 |  |  |  |  | 

— ChEMBL document CHEMBL5352400, “Design, synthesis and biological evaluation of novel coumarin derivatives as multifunctional ligands for the treatment of Alzheimer's disease” (Eur J Med Chem, 2022)
